Where two headings read alike, the source gives them in different places.

Data set [1] has as its target T1, Jurkat cells expressing CXCR4 (Homo sapiens, UniProt P61073).
T1 construct: endogenous in cells; host or cells: Jurkat
In words: Chemokine (CXCL12-AF647) binding inhibition assay. As to conditions: CXCL12-AF647 25 ng/mL, read-out: IC50 CXCL-12 binding Jurkat. Summed up: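 Cells in HBSS, 20 mM HEPES, 0.2% BSA, pH 7.4, preincubated 15 min at room temperature with compound, then 25 ng/mL CXCL12-AF647 for 30 min. After washing and paraformaldehyde fixation, bound ligand read by flow cytometry; percent inhibition calculated from MFI relative to unlabeled and ligand-only controls.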

Data set [2] is described as follows: Mouse brain uptake assay (MBUA), 3 mg/kg IV, 0-1 h, 3 time points. As to conditions: for clearance / half-life: CD1, plasma, 3 time points; for half-life: read-out: t½ (converted). The format is in vivo, male CD1 mice. As for the experimental part: Example 38: Pharmacokinetics and Brain Penetration Experiment to Determine Brain and Plasma Concentrations of Compounds after IV Administration to Male CD1 Mice
The study design (9 animals) consisted of administrating the drug (IV: 3 mg/kg (5 mL/kg) via tail vein injection) and collecting samples at terminal bleeding for plasma and brain at 0.083, 0.5 and 1 h. The IV dosing solution was prepared in 50 mM citrate buffer (pH 4.0) at 0.6 mg/mL. The blood collection was performed as follows: the animal was restrained manually and approximately 150 μL blood/time point was collected into a dipotassium EDTA tube via retro orbital puncture under anesthesia with isoflurane. The blood sample was put on ice and centrifuged to obtain a plasma sample (2000 g, 5 min under 4° C.) within 15 minutes. The brain collection was performed as follows: a mid-line incision was made in the animal's scalp and the skin was retracted. Using small bone cutters and rongeurs, the skull overlying the brain was removed. The brain was removed using a spatula and the brain rinsed with cold saline. The brain was placed in screw-top tubes, and the tubes were stored at −70° C. until analysis.
An aliquot of 30 μL sample was added to 150 μL MeCN containing 50 ng/mL IS (Dexamethasone). The mixture was vortexed for 5 min and centrifuged at 14,000 rpm for 5 min. An aliquot of 5 μL supernatant was injected for LC-MS/MS analysis.
An aliquot of 30 μL brain homogenate (brain:PBS=1:3, w/v) sample was added to 150 μL IS in MeCN (Dexamethasone, 50 ng/mL). The mixture was vortexed for 5 min and centrifuged at 14,000 rpm for 5 min. An aliquot of 5 μL supernatant was injected for LC-MS/MS analysis.
The sample analysis was performed on LCMS/MS-003 (API4000, triple quadruple) under the following conditions: positive ion, ESI, MRM detection using dexamethasone as internal standard. HPLC conditions: mobile phase A: H2O (0.025% formic acid (FA) with 1 mM NH4OAc); mobile phase B: MeOH (0.025% FA with 1 mM NH4OAc) on Waters X-Bridge C18 (2.1×50 mm, 2.5 μm) column at 60° C.

Data set [3] is described as follows: Rat brain uptake assay: pharmacokinetics and brain penetration after IV-PO administration. The format is in vivo, male SD rats. The conditions noted are these: male, SD; for clearance / AUC(0-t) / bioavailability / half-life: Rat (3 mg/kg IV; 10 mg/kg, PO); for bioavailability: read-out: F % (oral bioavailability); for half-life: read-out: t½ (converted). As to the method: Example 39: Pharmacokinetics and Brain Penetration Experiment to Determine Brain and Plasma Concentration of Compounds after IV-PO Administration to Male SD Rats
The IV and PO dosing solutions were prepared in 50 mM citrate buffer (pH 4.0) at 2 mg/mL. The blood collection was performed as follows: the animal was restrained manually at the designated time points, approximately 150 μL of blood sample was collected via cardiac puncture vein into EDTA-2K tubes. The blood samples were maintained in wet ice first and centrifuged to obtain plasma (2000 g, 4° C., 5 min) within 15 minutes post sampling. The brain collection was performed as follows: a mid-line incision was made in the animal's scalp and the skin was retracted. Using small bone cutters and rongeurs, the skull overlying the brain was removed. The brain was removed using a spatula and rinsed with cold saline. The brain was placed in screw-top tubes and then stored under −70° C. until analysis. The CSF collection was performed as follows: the animal was euthanized under deep anesthesia with air bubble tail vein injection. The CSF was collected by direct puncture of butterfly needle into the cisterna magna, using the occipital bone and the wings of the atlas as landmarks. A piece of white paper was used as a background to monitor color change in the sample just above the needle during collection. Upon observation of color change, the PE tubing was quickly clamped off above the color change and cut just above the clamped site. The clear sample was drawn into the syringe.
An aliquot of 30 μL sample was added to 100 μL MeCN containing 100 ng/mL IS (Dexamethasone). The mixture was vortexed for 10 min and centrifuged at 5800 rpm for 10 min. An aliquot of 40 μL supernatant was added with 40 μl H2O and the mixture was vortexed for 5 min. An aliquot of 2 μL supernatant was injected for LC-MS/MS analysis.
The sample was homogenized with 3 volumes (v/w) of PBS. An aliquot of 30 μL sample was added with 100 μL MeCN containing 100 ng/mL IS (Dexamethasone). The mixture was vortexed for 10 min and centrifuged at 5800 rpm for 10 min. An aliquot of 40 μL supernatant was added with 40 μl H2O and the mixture was vortexed for 5 min. An aliquot of 2 μL supernatant was injected for LC-MS/MS analysis.
An aliquot of 10 μL sample was added to 10 μL MeOH/H2O (1/1) and 40 μL ACN containing 200 ng/mL IS (Dexamethasone) 120 μL H2O. The mixture was vortexed for 5 min. An aliquot of 2 μL supernatant was injected for LC-MS/MS analysis.
The sample analysis was performed on UPLC-MS/MS-02 (Triple Quad™ 4000) under the following conditions: positive ion, ESI, MRM detection using dexamethasone as internal standard. HPLC conditions: mobile phase A: H2O-0.1% FA, mobile phase B: MeCN-0.1% FA on ACQUITY UPLC HSS T3 (2.1×50 mm, 1.8 μm) column at 60° C. In Table 11, F % means means oral bioavailability (the total number for protein bound and free fraction).

[4] abbreviates: male, CD1, brain, mouse, 3 mg/kg IV, 0-1 h, read-out: AUClast (b).
Where [5] appears, read: male, CD1, plasma, mouse, 3 mg/kg IV, 0-1 h, read-out: AUClast (P).

T1 sequence (P61073 whole entry): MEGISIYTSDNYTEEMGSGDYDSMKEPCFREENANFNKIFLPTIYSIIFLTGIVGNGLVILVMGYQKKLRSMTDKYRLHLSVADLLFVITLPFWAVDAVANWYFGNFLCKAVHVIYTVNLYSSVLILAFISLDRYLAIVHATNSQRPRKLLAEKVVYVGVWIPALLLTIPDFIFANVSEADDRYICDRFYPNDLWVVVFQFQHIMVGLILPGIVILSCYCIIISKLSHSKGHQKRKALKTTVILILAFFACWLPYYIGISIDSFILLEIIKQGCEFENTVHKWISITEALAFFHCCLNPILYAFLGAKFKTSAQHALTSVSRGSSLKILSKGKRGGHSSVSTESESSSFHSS

Regarding `Cc1cccnc1[C@@H]1CCC[C@H](c2nc3cccc(N4CCN(C)CC4)c3[nH]2)N1C` (racemic) [I-3, 2-((2R,6S)-1-methyl-6-(3-methylpyridin-2-yl)piperidin-2-yl)-7-(4-methylpiperazin-1-yl)-1H-benzo[d]imidazole], in data set [1], the IC50 (commonly the concentration that inhibits the measured activity by half) fell in the range of 0.01 to 100 nM. Moreover, the clearance in data set [2] (male, mouse, 3 mg/kg IV, 0-1 h) is 115 mL/min/kg; in data set [3] (plasma), 123 mL/min/kg. Moreover, the half-life was 0.3 h in data set [2] (male, mouse, 3 mg/kg IV, 0-1 h) and 2.1 h in data set [3] (plasma). Moreover, the AUC(0-t) was 180 ng·h/mL in data set [2] (setting [4]); 268 ng·h/mL in data set [2] (setting [5]); 503 ng·h/mL in data set [3] (plasma, read-out: AUClast (P)); 1520 ng·h/mL in data set [3] (brain, read-out: AUClast (b)). Also, the bioavailability – broadly, the share of a dose that reaches the circulation, judged against a reference dose that is usually intravenous – in data set [3] (plasma) worked out at 37.6%.
As to `CN1CCN(c2cccc3nc([C@H]4CCC[C@@H](c5ncccc5Cl)N4)[nH]c23)CC1` (racemic) [I-122], the IC50 in data set [1] is 0.01 to 100 nM. The Kp stood at 1.23 in data set [2] (male, CD1, mouse, brain/plasma, iv, 3 mg/kg) and 1.22 in data set [3] (brain/plasma, AUC last(b)/AUC last(p), Rat, read-out: Kp (brain/plasma drug concentration ratio)). The clearance in data set [2] (male, mouse, 3 mg/kg IV, 0-1 h) is 119 mL/min/kg; in data set [3] (plasma), 31.7 mL/min/kg. Also, the half-life in data set [2] (male, mouse, 3 mg/kg IV, 0-1 h) is 0.402 h; in data set [3] (plasma), 5.31 h. In addition, the AUC(0-t) in data set [2] (setting [4]) amounted to 418 ng·h/mL; in data set [2] (setting [5]) it was 341 ng·h/mL; in data set [3] (plasma, read-out: AUClast (P)), 5440 ng·h/mL; in data set [3] (brain, read-out: AUClast (b)), 6650 ng·h/mL. In addition, the Kp uu worked out at 0.33 in data set [2] (male, CD1, unbound brain/unbound plasma, mouse, 3 mg/kg IV, 0-1 h, read-out: Kp, uu) and 0.2 in data set [3] (brain/plasma (unbound), Fu (b)*AUC last (b)/Fu (p)*AUC last (p), Rat, read-out: Kp, uu (unbound brain/unbound plasma drug concentration ratio)). The fraction unbound in data set [2] (mouse, fraction unbound to brain proteins, read-out: Fu (b) %) was found to be 0.035; in data set [2] (mouse, fraction unbound to plasma proteins, read-out: Fu (p) %) it was 0.127. In data set [3] (plasma), the bioavailability was 74.6%.
